Results: patent publication US8999456B2, “Method for manufacturing of drug-releasing stent coated with titanium—oxide thin film” (Industry Foundation of Chonnam National University, priority 2009, dated 2015)

Test: Quantity of drug attached to the stent by UV absorbance and calibration curves
Type: physicochemical
Conditions: FIG. 7
Experimental: In order to measure the quantity of α-lipoic acid and ReoPro attached to the stent, standard solutions with four concentrations were prepared for each drug. Absorbance was measured using a UV spectrometer (Shimadzu 1601, Japan) at 330 nm for α-lipoic acid and at 278 nm for ReoPro. Thus, calibration curves were drawn for α-lipoic acid and ReoPro. Then, in order to measure the quantity of the drugs attached to the stent, each 500 μL of the reaction solution was taken before and after the reaction, which were diluted by mixing with triple distilled water (2.5 mL) and subjected to absorbance measurement at 278 nm and 330 nm, respectively. The measurement result was compared with the calibration curves to determine the quantity of α-lipoic acid and ReoPro attached to the stent.
After binding a drug on the surface of the stent that had been modified with hydroxyl groups, the amount of the bound drug was calculated using the calibration curves. […] Therefore, it can be seen that a 10 to 50 W is ideal for modification of the titanium dioxide thin film using water.

quantity of attached α-lipoic acid (discharge power applied for the surface modification 20 W): 250 µg
quantity of attached α-lipoic acid (surface modification at 60 W): decreased remarkably
quantity of attached α-lipoic acid (thin films modified at 10, 30, 40 and 50 W): about 150 μg
SMILES: O=C(O)CCCCC1CCSS1 (stereo not drawn) [α-lipoic acid]
